Experimental findings from PubChem BioAssay AID1985 (Southern Research Specialized Biocontainment Screening …, 2009) are described below.

In general, IC50 refers to the concentration needed to halve the response being measured.

The test system of this test is S. Typhi PhoP-promoter GFP reporter, fluorescence, 4 h. Description: modified counter assay using GFP fluorescence, PhoP regulon inhibitor project, dose response (AID 1985).

As for `O=C(CN1C2=NCCCN2c2ccccc21)c1ccc(Br)s1`, the IC50 was 135 µM. The value for `COc1cccc(/C=N/NC(=O)C(=O)N2CCCC2)c1O` was 101 µM; that for `CCS(=O)(=O)c1ccc2oc(=O)c(/C=C(\O)c3ccc(Cl)cc3)nc2c1` was 65.1 µM. With `O=C(C[n+]1cc(-c2ccccc2)n2c1CCC2)Nc1nc(-c2ccc(F)cc2)cs1`, the IC50 was 141 µM. On to `O=C(Oc1c(Br)cc([N+](=O)[O-])cc1Br)c1cccnc1`, for which the IC50 was 46.5 µM. The value for `O=C1c2cccc3cccc(c23)C(=O)C1(O)O` was 28.8 µM. The figure for `O=C(N/N=C/c1ccc([N+](=O)[O-])s1)c1ccccc1Br` is 27.7 µM; for `NC1CCN(c2nc3c(cc2F)c(=O)c(C(=O)O)cn3-c2ccc(F)cc2F)C1` (centres undefined) it is less than 0.23 µM; for `CC(NCc1ccccc1O)C12CC3CC(CC(C3)C1)C2` (centres undefined) it is 81.4 µM. The value for `NC(N)=N/N=C/c1ccc(OCc2ccc(Cl)cc2Cl)cc1` was 16.9 µM; that for `CCCCCCCCCCOC(=O)Cn1c(COc2cccc(OC)c2)[n+](C)c2ccccc21` was 18.1 µM.

Turning to `CSc1cccc(NC(=O)/C=C/c2ccccc2)c1`, the IC50 is 84.9 µM.

For `N=c1n(CCN2CCCCC2)c2ccccc2n1CC(O)COc1ccccc1` (centres undefined), the IC50 is 90.2 µM. Turning to `C#CCOCCOCCOCCNc1nc(N2CCN(C(=O)CCCCCCCCCCNC(=O)Cn3cc(CCCCCN)nn3)CC2)nc(N2CCN(C(=O)CCCCCCCCCCNC(=O)[C@H]([C@@H](C)CC)n3cc(CCCCN=C(N)N)nn3)CC2)n1`, the IC50 is 36.8 µM.

Regarding `Oc1ccc(CN2CCCc3ccccc32)c2cccnc12`, the concentration for half-maximal inhibition (IC50) was 36.1 µM. The figure for `CCCCCCCCCCOC(=O)Cn1c(COc2ccc(C)cc2)[n+](C)c2ccccc21` is 16.6 µM. The figure for `CCn1cc(C(=O)NCc2ccc3c(c2)OCO3)c(=O)c2cc(F)c(N3CCN(C(=O)c4ccco4)CC3)cc21` is 107 µM; for `O=C(/C=C/c1ccco1)NC(=S)NNC(=O)c1ccco1` it is 111 µM; for `CCCCOCCCNc1ncnc2c1[nH]c1ccccc12` it is 72.8 µM. The figure for `O=C(CSc1ccccn1)Nc1nonc1[N+](=O)[O-]` is 43.5 µM; for `OCCN1CCN(C2Cc3cc(Cl)ccc3Sc3ccc(Cl)cc32)CC1` (centres undefined) (tested in a mixture with another compound) it is 74.8 µM. As for `CN1CCN(c2c(F)cc3c(=O)c(C(=O)O)cn4c3c2OCN4C)CC1`, the IC50 is less than 0.23 µM. The value for `CCCCCCCCNC(C)C(O)c1ccc(SC(C)C)cc1` (centres undefined) was 41.8 µM; that for `O=[N+]([O-])c1cc(Cl)c2cccnc2c1O` was 1.46 µM; that for `NC(=O)SCC(=O)Nc1ccc(Cl)cc1` was 45.1 µM. The value for `C(=N\Nc1ccccn1)/c1cccnc1` was 37.5 µM; that for `CN(C)CCCN(C(=O)CCc1ccccc1)c1nc2ccc(Br)cc2s1` was 110 µM. The value for `CN1CCN(Cc2cc(COCc3ccccc3)c3cccnc3c2O)CC1` was 62.9 µM. `CN(C)CC/C=C1\c2ccccc2Sc2cc(F)c(Cl)cc21`: the IC50 was 65.4 µM. The value for `O=CN/N=C/c1c(O)ccc2ccccc12` was 49 µM. The value for `CC[C@@H](C)[C@H](CNC)NC[C@@H](Cc1cccc2ccccc12)NCCc1cccc(C(F)(F)F)c1` was 21.8 µM; that for `CCNC(=O)Oc1ccc[nH]c1=O` was 99.4 µM. The figure for `Cc1ccc(Nc2nc(NCCO)c3ccccc3n2)cc1C` is 80.8 µM; for `CCCCCCCCNc1ncnc2ccccc12` it is 35.8 µM; for `Cc1ccc2nc(N(CCCN(C)C)C(=O)c3ccc4c(c3)CCCC4)sc2c1` it is 78.5 µM. With `Oc1c(C(Nc2ccccn2)c2cccnc2)cc(Cl)c2cccnc12` (centres undefined), the IC50 was 33.9 µM. The value for `CCC(C)NC(=O)c1cn(CC)c2cc(N3CCN(C)CC3)c(F)cc2c1=O` (centres undefined) was 38.4 µM; that for `CNCCCCOc1ccc(C(C)(C)C)cc1Cl` was 61 µM. On to `CCCCCCCCCCCCCCCC[N+](C)(C)C`, for which the IC50 was 19.3 µM.

In the case of `CN(C)CCCN1c2ccccc2Sc2ccccc21`, the IC50 was 103 µM.

Consider `CCSc1ccc2c(c1)N(CCCN1CCN(C)CC1)c1ccccc1S2`, for which the IC50 is 131 µM.

In the case of `CSc1nc2ccc(Cl)cc2[nH]1`, the IC50 was 50.4 µM.

Regarding `NC1=C(Br)C(=O)c2ccccc2C1=O`, the IC50 was 20.1 µM. The value for `Nc1nc(F)nc2c1ncn2[C@@H]1O[C@H](CO)[C@@H](O)[C@H]1O` was 3.76 µM; that for `CCCC(=O)NC(c1ccco1)c1cc([N+](=O)[O-])c2cccnc2c1O` (centres undefined) was 8.65 µM; that for `Cc1ccc2c(c1)C1CN(C)CCC1N2Sc1ccccc1[N+](=O)[O-]` (centres undefined) was 135 µM. The value for `NC[C@@H]1O[C@H](C23CC4CC(CC(C4)C2)C3)Cc2c1ccc(O)c2O` was 39.8 µM; that for `Nc1nc(Nc2cccc(F)c2)nc2ccccc12` was 54 µM; that for `OC(CNCC1CCCO1)Cn1c2ccc(Cl)cc2c2cc(Cl)ccc21` (centres undefined) was 38.8 µM. The figure for `Cc1ccc(Nc2c3c(nc4ccccc24)CCC3)cc1` is 39.8 µM. Take `O=C(N/N=C/c1ccc([N+](=O)[O-])o1)C(O)c1ccccc1` (centres undefined): the IC50 was 13.1 µM. The figure for `ON=C1/C(=N\O)CC2(C/C1=N/O)OCCO2` is 112 µM; for `N=c1c2c(n(Cc3ccc(Cl)cc3Cl)c3c1CCC3)CCCC2` it is 80.7 µM. The figure for `O=C(CCN1CCN(C(=O)c2ccccc2)CC1)c1ccc(Br)cc1` is 144 µM. The figure for `Clc1ccc(OCCCNCc2ccccc2)c2ccccc12` is 33.8 µM; for `CC1=NOC(=O)/C1=C/c1ccc(O)cc1` it is 117 µM. Consider `O=C(O)c1cn(C2CC2)c2cc(N3CCN(S(=O)(=O)c4ccc5c(c4)OCCO5)CC3)c(F)cc2c1=O`, for which the IC50 is 28.2 µM.

As for `CCOC(=O)N1CCN(Cc2cc(Cl)c3cccnc3c2O)CC1`, the IC50 is 37.8 µM. The value for `CCCCOc1ccc(CN=C(N)N)cc1Cl` was 103 µM; that for `N/C(=N\OS(=O)(=O)c1ccc2ccccc2c1)c1cccnc1` was 14.2 µM; that for `CC[n+]1c(/C=C/C=C/c2ccc(N(C)C)cc2)sc2ccccc21` was 35.7 µM. The figure for `Oc1cccc(C=NCc2ccccc2)c1O` is 57.7 µM; for `CC(C)(c1ccccc1)c1ccc(OCCCN2CCNCC2)cc1` it is 114 µM. For `Cn1c(-c2ccc3c(c2)OCO3)cnc1NCc1ccc(Cl)cc1`, the IC50 was 140 µM.

Regarding `COc1ccc(C(C[N+](=O)[O-])C2(c3ccc(OC)c(OC)c3)C(=O)c3ccccc3C2=O)cc1` (centres undefined), the IC50 was 8.15 µM. The value for `COc1ccc(C(=O)NC(=S)NNC(=O)c2cccc(C)c2)cc1` was 46.8 µM. The figure for `C#CCOCCOCCOCCNc1nc(N2CCN(C(=O)CCCCCCCCCCNC(=O)[C@H]([C@@H](C)CC)n3cc(CCCCN=C(N)N)nn3)CC2)nc(N2CCN(C(=O)CCCCCCCCCCNC(=O)[C@H](CCCCN)n3cc(C)nn3)CC2)n1` is 69.3 µM. The value for `O=C(N/N=C/c1c[nH]c2ccccc12)c1ccc(Cl)cc1` was 123 µM; that for `CCCCCCCCC[n+]1cccc2c3ccccc3ccc21` was 26.8 µM; that for `CO[C@H]1/C=C/O[C@@]2(C)Oc3c(C)c(O)c4c(O)c(c(C=NN5CCN(C)CC5)c(O)c4c3C2=O)NC(=O)/C(C)=C\C=C\[C@H](C)[C@H](O)[C@@H](C)[C@@H](O)[C@@H](C)[C@H](OC(C)=O)[C@@H]1C` was 32.6 µM.

In the case of `S=C(Nc1cc(Cl)cc(Cl)c1)NC1CCN(Cc2ccccc2)CC1`, the IC50 is 36.7 µM.

In the case of `COc1ccc(C2NCCc3c2[nH]c2ccccc32)cc1COc1ccc(F)cc1` (centres undefined), the IC50 was 78.5 µM. The value for `O=C(N/N=C/c1cc([N+](=O)[O-])ccc1O)c1cccc2cc[nH]c12` was 91.6 µM. As for `O/N=C/c1ccc(OCc2ccccc2)c(Cl)c1`, the IC50 is 130 µM.

For the compound `CC(=O)NC(c1ccc2ccccc2c1)c1ccc2cccnc2c1O` (centres undefined), the IC50 was 68.4 µM. The value for `Nc1nc(Nc2ccc(Cl)cc2)nc2ccccc12` was 33 µM.

With `CC(=O)NNC(=S)NC(=O)c1ccccc1`, the IC50 was 22.7 µM. Turning to `O=C(N/N=C/c1ccccn1)c1ccc(Br)o1`, the IC50 was 50.1 µM.

As to `CS(=O)(=O)c1ccc([C@@H](O)[C@@H](CF)NC(=O)C(Cl)Cl)cc1`, the IC50 was 4.74 µM. The figure for `O=c1cc(-c2ccc(O)cc2)oc2c(O)c(O)c(O)c(O)c12` is 40.2 µM; for `O=[N+]([O-])c1cc(F)c2cccnc2c1O` it is 4.83 µM. In the case of `O=C(Nc1ccc2nc(-c3ccc(Br)o3)[nH]c2c1)c1ccco1`, the IC50 was 130 µM. The figure for `CCCCCc1ccc(OCCC[n+]2ccccc2)c(CCCCC)c1` is 82.7 µM; for `COc1cccc(C=NCC(C)N=Cc2cccc(OC)c2O)c1O` (centres undefined) it is 74.1 µM. The figure for `C#CCOCCOCCOCCNc1nc(N2CCN(C(=O)CCCCCCCCCCNC(=O)Cn3cc(CCCCCN)nn3)CC2)nc(N2CCN(C(=O)CCCCCCCCCCNC(=O)[C@H]([C@@H](C)CC)n3cc(CCCCCN)nn3)CC2)n1` is 71.3 µM; for `CNCc1c(OCc2ccccc2F)ccc2ccccc12` it is 127 µM. The value for `Nc1nc2ccccc2n1Cc1ccc(Cl)c(Cl)c1` was 54.6 µM; that for `CC/C(=N\Nc1ccnc2cc(Cl)ccc12)c1ccc(O)cc1` was 148 µM. For the compound `COc1ccc(OCc2n(CC(=O)OC3CC(C)CCC3C(C)C)c3ccccc3[n+]2C)cc1` (centres undefined), the IC50 is 80.6 µM.

On to `CN1CCc2nc(SCC(=O)Nc3cccc(F)c3)c(C#N)c(-c3cccs3)c2C1`, for which the IC50 is 136 µM. The figure for `O=Nc1c(O)c2ccccc2c2ccccc12` is 24.6 µM; for `CC[n+]1c(/C=C/N(C)c2ccccc2)n(-c2ccccc2)c2ccc(-c3nc4ccccc4s3)cc21` it is 8.97 µM.

For `Cc1cccn2c(=O)c(C=O)c(Cl)nc12`, the IC50 is 140 µM.

In the case of `CCCCCCCNC(=O)C1(CC2CC(c3cccc(Br)c3)=NO2)CCNCC1` (centres undefined), the half-inhibitory concentration (IC50) is 46 µM.

`Cc1occc1C(=O)N/N=C/c1cccs1`: the IC50 was 45.7 µM. Regarding `Nc1nonc1-n1nnc(C(=O)N/N=C/c2cc(Br)ccc2O)c1CSC1=NCCS1`, the IC50 was 26 µM. The value for `Cc1ccc(CNCCC2=CCCCC2)cc1` was 81.9 µM; that for `Cc1ccc(Nc2cc(C)nn2-c2nc(C)cc(=O)[nH]2)cc1` was 10.2 µM; that for `CCCCCN=C(N)N/N=C/c1c[nH]c2ccc(OC)cc12` was 35.6 µM.
